Earlier results in patent publication US4350696A, “Imidazole derivatives, process for their preparation and pharmaceutical compositions thereof” (Pfizer Inc., priority 1980, dated 1982).

Tests used:
[1] = tested on: platelet clumping and embolisation in the lungs; conditions: rabbit, intravenous injection of arachidonic acid
[2] = tested on: human blood platelet aggregation; conditions: in vitro, a variety of aggregating agents
aggregation of platelets = conditions: rats in vivo, abdominal aorta loop

Compound	protection from lethal effect of intravenous arachidonic acid [1]	inhibitory activity against platelet aggregation [2]	prevention of platelet aggregation in extra corporeal loop (aggregation of platelets)
CC(=O)Oc1ccccc1C(=O)O [aspirin]	protect the rabbit from the lethal effect of the injection	show inhibitory activity	
O=C1C(CC[S+]([O-])c2ccccc2)C(=O)N(c2ccccc2)N1c1ccccc1 (stereo not shown) [sulphinpyrazone]		show inhibitory activity	prevent the aggregation of platelets
